According to patent US20250235545A1, “POLYPEPTIDE CONJUGATE AND USE THEREOF” (SHANGHAI CHIXI BIOMEDICAL TECHNOLOGY CO., LTD, priority 2024, published 2025):
Converted amounts (≈) assume the structure as drawn. Read-outs that look alike come from different tables or passages of the source. Where a SMILES comes first, the peptide text is derived from it. The star is where a group is joined. X5 = CC[C@@]1(O)C(=O)OCc2c1cc1n(c2=O)Cc2c-1nc1ccccc1c2CCN(CC(C)C)*; Propanoyl(3-maleimido) = O=C1C=CC(=O)N1CCC(=O)*; PEG6 = NCCOCCOCCOCCOCCOCCOCCC(=O)O

How the values were obtained:
[1] = tested on: colo320 (colorectal cancer tissue); experiment: cells; type: cell-based; details: CCK8, 48 h; Table 6
Outline: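 Colo320 cells, 5,000 per well, exposed to drug concentration series for 48 h at 37 °C, 5% CO2 (0.1% DMSO controls). Viability by CCK8, absorbance at 450 nm after about 2 h. Survival rates and IC50 calculated.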

[2] = tested on: sarcoma SJSA-1 tumor model; details: Table 7
Outline: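 Female BALB/c nude mice (6-8 weeks) bearing subcutaneous right-chest SJSA-1 xenografts from 2×10^7 cells were randomized, three per group, once tumors reached at least 100 mm^3. Treatment given once a week for three weeks starting day 1; saline controls.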

[3] = tested on: colo320 colorectal cancer tumor model; details: Table 8
Outline: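 Dosing was once a week for four weeks, with saline as control, in randomized groups of three mice. Groups were formed after subcutaneous colo320 xenografts (7.5×10^6 cells, right chest) grew to ≥120 mm^3 in female 6–8-week-old BALB/c nude mice.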

[4] = tested on: sarcoma SJSA-1 tumor model; experiment: Efficacy in animal model of sarcoma SJSA-1, 30 mg/kg once a week for two weeks (Example 40); type: in vivo, BALB/c mice; details: 30 mg/kg once a week for two weeks
Experimental: Test objective: To further compare the antitumor efficacy of different polypeptide Linkers in an animal tumor model of sarcoma SJSA-1.
(§1) Test drug: Polypeptide conjugate and normal saline control group.
The control group was administered normal saline. Administration was performed once a week for two weeks.

[5] = tested on: A2780 ovarian cancer tumor model; experiment: Efficacy in animal model of A2780 ovarian cancer, 30 mg/kg once a week for two weeks (Example 41); type: in vivo, BALB/c mice
Experimental: Test objective: To further compare the antitumor efficacy of different polypeptide Linkers in an animal tumor model of A2780 ovarian cancer.
as §1
8×10^6 corresponding cells were injected into right axillas of nude mice subcutaneously. […] The negative control group was administered normal saline. Administration was performed once a week for two weeks.

[6] = Tumor homogenate activation efficiency, ovarian cancer tissue (Examples 28, 37); type: in vitro ADME; details: pH 5.0, 37° C., 2 h; Table 10
Outline: (§2)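 HPLC read-out: release % = Belotecan peak area / summed areas of Belotecan plus every Belotecan-containing compound. Samples were 1 mg/ml conjugate with 100 μg handheld-homogenized tissue in pH 5.0 MES/NaCl buffer, held 2 h at 37° C.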

[7] = Tumor homogenate activation efficiency, sarcoma tissue (Examples 28, 37); type: in vitro ADME; details: pH 5.0, 37° C., 2 h; Table 10
Outline: as §2

[8] = Tumor homogenate activation efficiency, breast cancer tissue (Examples 28, 37); type: in vitro ADME; details: pH 5.0, 37° C., 2 h; Table 10
Outline: as §2

[9] = Tumor homogenate activation efficiency, non-small cell lung cancer tissue (Examples 28, 37); type: in vitro ADME; details: pH 5.0, 37° C., 2 h; Table 10
Outline: as §2

[10] = Tumor homogenate activation efficiency, colorectal cancer tissue (Example 37); type: in vitro ADME; details: pH 5.0, 37° C., 2 h; Table 10
Outline: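 Polypeptide conjugate at 1 mg/ml in 50 mM MES, 250 mM NaCl, pH 5.0, incubated with 100 μg colorectal tumor tissue homogenate at 37° C for 2 h. HPLC read-out; release percentage = Belotecan peak area over total area of Belotecan and all Belotecan-containing compounds.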

[11] = Homogenate activation efficiency, heart tissue (Examples 28, 37); type: in vitro ADME; details: pH 5.0, 37° C., 2 h; Table 10
[12] = 15 mg/kg once a week for three weeks
[13] = 45 mg/kg once a week for three weeks
[14] = 15 mg/kg once a week for four weeks
[15] = 45 mg/kg once a week for four weeks

**Q.** Which “IC50 Colorectal cancer tissue (colo320)” value [1] does the source give for `CC[C@@]1(O)C(=O)OCc2c1cc1n(c2=O)Cc2c-1nc1ccccc1c2CCN(CC(C)C)C(=O)[C@H](CC(C)C)NC(=O)[C@H](CC(N)=O)NC(=O)[C@H](C)NC(=O)[C@H](C)NC(=O)CCOCCOCCOCCOCCOCCOCCNC(=O)CCN1C(=O)C=CC1=O` [MI-6PEG-AANL-D5] ({Propanoyl(3-maleimido)-PEG6}-AANL-X5) here?
**A.** 2.42 µg/mL (≈ 1.86 µM)

**Q.** What about the “Mouse weight (%)” value [2, 12] of the same molecule?
**A.** +18%

**Q.** And the “SJSA-1 (sarcoma tissue) growth rate (%)” value [2, 12]?
**A.** 1069.02%

**Q.** What about the “SJSA-1 (sarcoma tissue) mean tumor volume (mm^3)” value [2, 12] of the same molecule?
**A.** 1304.2 mm^3

**Q.** What about the “Mouse weight (%)” value [2, 13] of the same molecule?
**A.** +17%

**Q.** And the “SJSA-1 (sarcoma tissue) growth rate (%)” value [2, 13]?
**A.** 933.13%

**Q.** What about the “SJSA-1 (sarcoma tissue) mean tumor volume (mm^3)” value [2, 13] of the same molecule?
**A.** 1165.2 mm^3

**Q.** What about the “Mouse weight (%)” value [3, 14] of the same molecule?
**A.** +19%

**Q.** And the “colo320 (colorectal cancer cell) growth rate (%)” value [3, 14]?
**A.** 1027.54%

**Q.** What about the “colo320 (colorectal cancer cell) mean tumor volume (mm^3)” value [3, 14] of the same molecule?
**A.** 1257.2 mm^3

**Q.** What about the “Mouse weight (%)” value [3, 15] of the same molecule?
**A.** +19%

**Q.** And the “colo320 (colorectal cancer cell) growth rate (%)” value [3, 15]?
**A.** 643.05%

**Q.** What about the “colo320 (colorectal cancer cell) mean tumor volume (mm^3)” value [3, 15] of the same molecule?
**A.** 755.9 mm^3

**Q.** And the “SJSA-1 (sarcoma tissue) mean tumor volume (mm^3) Day 1” value ([4]; Day 1)?
**A.** 139.89 mm^3

**Q.** What about the “SJSA-1 (sarcoma tissue) mean tumor volume (mm^3) Day 4” value ([4]; Day 4) of the same molecule?
**A.** 429.56 mm^3

**Q.** And the “SJSA-1 (sarcoma tissue) mean tumor volume (mm^3) Day 7” value ([4]; Day 7)?
**A.** 658.17 mm^3

**Q.** And the “SJSA-1 (sarcoma tissue) mean tumor volume (mm^3) Day 10” value ([4]; Day 10)?
**A.** 876.45 mm^3

**Q.** And the “Mouse weight (%) on Day 14” value ([4]; Day 14)?
**A.** −1.1%

**Q.** What about the “SJSA-1 (sarcoma tissue) growth rate (%) on Day 14” value ([4]; Day 14) of the same molecule?
**A.** 979.44%

**Q.** And the “SJSA-1 (sarcoma tissue) mean tumor volume (mm^3) Day 14” value ([4]; Day 14)?
**A.** 1370.14 mm^3

**Q.** And the “A2780 (ovarian cancer) mean tumor volume (mm^3) Day 1” value ([5]; Day 1)?
**A.** 134.01 mm^3

**Q.** What about the “A2780 (ovarian cancer) mean tumor volume (mm^3) Day 4” value ([5]; Day 4) of the same molecule?
**A.** 254.52 mm^3

**Q.** And the “A2780 (ovarian cancer) mean tumor volume (mm^3) Day 7” value ([5]; Day 7)?
**A.** 612.55 mm^3

**Q.** What about the “A2780 (ovarian cancer) mean tumor volume (mm^3) Day 10” value ([5]; Day 10) of the same molecule?
**A.** 730.28 mm^3

**Q.** What about the “A2780 (ovarian cancer) mean tumor volume (mm^3) Day 14” value ([5]; Day 14) of the same molecule?
**A.** 1116.71 mm^3

**Q.** And the “Growth rate (%) of A2780 (ovarian cancer) on Day 14” value ([5]; Day 14)?
**A.** 833.30%

**Q.** What about the “Mouse weight (%) on Day 14” value ([5]; Day 14) of the same molecule?
**A.** +7.9%

**Q.** What about the “Percentage of release efficiency (%) Ovarian cancer tissue (A2780)” value [6] of the same molecule?
**A.** 74.3%

**Q.** And the “Percentage of release efficiency (%) Sarcoma tissue (SJSA1)” value [7]?
**A.** 77.5%

**Q.** What about the “Percentage of release efficiency (%) Breast cancer tissue (SKBR3)” value [8] of the same molecule?
**A.** 70.2%

**Q.** What about the “Percentage of release efficiency (%) Non-small cell lung cancer tissue (A549)” value [9] of the same molecule?
**A.** 85.5%

**Q.** And the “Percentage of release efficiency (%) Colorectal cancer tissue (colo320)” value [10]?
**A.** 69.8%

**Q.** And the “Percentage of release efficiency (%) Heart tissue” value [11]?
**A.** 5.5%
